What was measured:
CD8+ T cells = assay: MTT cytotoxicity on CD8+ T cells; assay type: cell-based, C57BL/6 mouse; details: 48 hours, relative to C3
Description: • 1) Take the spleen of C57BL/6 mouse, place it on the culture dish with 40 uM screen (ice bath), add about 10 mL of normal saline, and gently grind with sterile syringe core. • 2) Transfer the ground cell suspension into a 50 mL centrifuge tube, add about 5 mL of normal saline to rinse the petri dish, and also transfer it into the 50 mL centrifuge tube, and combine the suspensions. • 3) Centrifuge the cell suspension at 1000 r/min for 10 min, discard the supernatant, and add an appropriate volume of normal saline to resuspend. Then add 3 times volume of ammonium chloride erythrocyte lysate, pipetting evenly. After lysing on ice for about 10 min, add 10 mL of normal saline to stop the lysing, and centrifuge at 1000 r/min for 5 min. • 4) After centrifugation, discard the supernatant, add 10 mL of physiological saline, pipette evenly, centrifuge at 1000 r/min for 5 min, and repeat the above operation once. Cells were then resuspended in 10% RMPI 1640 medium for subsequent culture or in 0.5% BSA for subsequent T cell sorting. […]
• A. Washing of CD3/CD28 magnetic beads: a. […] The cells were transferred to another tube to remove the beads as completely as possible and cultured in medium supplemented with […] (which could be increased according to the actual situation) and their status, proliferation and viability were monitored. […]

[1] = Tissue distribution of released doxorubicin in orthotopic liver CT26 tumor mice; assay type: in vivo, BALB/c mice
Description: • Objective: To investigate the tissue distribution of activating drugs in liver tumors. • Test animals: BALB/c mice, 6-8 weeks old, all female.
• 1) CT26 cells were purchased from ATCC. […] Randomization was performed when the tumor size reached 800-1000 mm^3. Tumor tissue was then extracted and cut into 100 mm^3 tumor tissue pieces and transplanted orthotopically into BALB/c mouse livers. • 3) Administration process: After 14 days, when the orthotopically transplanted tumor grew, a group of 36 orthotopically transplanted tumor mice were treated with drugs. […] The previously published use of EMC-AANL-DOX was for breast cancer treatment.

[2] = Solution stability, HPLC and electrophoresis; details: 0.5 mg/ml, pH 5.5, 25° C.
Description: Add 0.5 ml of sterile water for injection to prepare a 10 mg/ml mother solution. […] Take 30 ul of the mother solution, add 570 ul of buffer solutions with different pH values of 5.5, and prepare a 0.5 mg/ml sample solution. After the sample was clarified, it was placed in a 25° C./37° C. water bath, and after 8 hours, the sample was sampled by HPLC and electrophoresis to detect the content of the sample relative to 0 hours, and the solution stability data of different compounds could be obtained.

COc1cccc2c1C(=O)c1c(O)c3c(c(O)c1C2=O)C[C@@](O)(C(=O)CO)C[C@@H]3O[C@H]1C[C@H](NC(=O)[C@H](CC(C)C)NC(=O)[C@H](CC(N)=O)NC(=O)[C@H](C)NC(=O)[C@H](C)NC(=O)CCOCCOCCNC(=O)CCN2C(=O)C=CC2=O)[C@H](O)[C@H](C)O1 [QHL-087-DOX]
cytotoxicity against CD8+ T cells (FIG. 5) (CD8+ T cells): less cytotoxicity against CD8+ T cells | doxorubicin delivery and activation compared with EMC-AANL-DOX ([1]; liver and in situ liver tumor): enhanced doxorubicin delivery and activation in situ liver cancer | distribution of active doxorubicin (FIGS. 8 and 9) ([1]; tissues collected at 1-72 hr, AUClast): mainly distributed in the liver and liver orthotopic tumors | Stability data of the solution, 8 hr (content relative to 0 hours) [2]: 98.2%
